# Experimental data reported in patent US12221646B2, “Method for the rapid determination of susceptibility or resistance of bacteria to antibiotics” (ABM TECHNOLOGIES, LLC, priority 2013, dated 2025).
# Read-outs that look alike come from different tables or passages of the source.
# Columns and labels:
# Type in all cases: cell-based
# Pseudomonas aeruginosa = assay: Cell enlargement after one hour incubation with antibiotic, P. aeruginosa
# Experimental: Pseudomonas aeruginosa, a common source of dangerous nosocomial infections, was also evaluated. […] Those correlated breakpoint concentrations for enlargement were 0.5 μg/ml for susceptible strains and greater than 1.0 μg/ml for resistant strains.
# P. aeruginosa was evaluated for the effect of carbapenems, meropenem and imipenem, which we corroborate that induce cell enlargement in the susceptible strains of this bacterium. CLSI breakpoint concentrations of susceptibility and resistance correspond to MICs≤2-≥8 μg/ml, respectively. For cell enlargement, the new breakpoint concentrations were much lower: ≤0.2->0.5 μg/ml, for susceptibility and resistance, respectively. One hundred and thirty strains of P. aeruginosa were studied, obtaining 97 susceptible, 14 intermediate and 19 resistant to meropenem, following the standard criterion of growth affectation as indicated by MIC-CL SI. All these strains were correctly categorized when using the new breakpoints for enlargement/non-enlargement.
# Acinetobacter baumannii [1] = assay: MIC of ceftazidime by E-test in A. baumannii strains; conditions: read-out: MIC determined by E-test
# Acinetobacter baumannii [2] = assay: Cell enlargement after one hour incubation with antibiotic (microgel, SYBR Gold, fluorescence microscopy), A. baumannii
# Experimental: Each dose was correlated to susceptibility breakpoints established in Example 1. The incubated samples were then assessed under microscopy for enlargement. The criterion of enlargement/non-enlargement was determined by a comparison to a control dose of 0 μg/ml. […] Using the criterion of enlargement/non-enlargement and the correlated breakpoint concentrations, each of the 320 strains were correctly identified.
# Klebsiella pneumoniae = assay: Cell enlargement after incubation with antibiotic, K. pneumoniae; conditions: correlated to CLSI MIC≤4 μg/ml
# Experimental: Klebsiella pneumoniae, another significant pathogen in clinical settings, was also evaluated. […] Strains were considered to be resistant when no cell enlargement was presented at either concentration.
SMILES,"cell enlargement, intermediate strains (Pseudomonas aeruginosa; incubation with 0.2 μg/ml and 0.5 μg/ml, 14 strains)","cell enlargement, resistant strains (Pseudomonas aeruginosa; incubation with 0.2 μg/ml and 0.5 μg/ml, 19 strains)","cell enlargement, susceptible strains (Pseudomonas aeruginosa; incubation with 0.2 μg/ml and 0.5 μg/ml, 97 strains)","MIC (Acinetobacter baumannii [1]; highly resistant strain of A. baumannii (FIG. 2, fourth row))","MIC (Acinetobacter baumannii [1]; intermediate strain of A. baumannii (FIG. 2, second row))","MIC (Acinetobacter baumannii [1]; susceptible strain of A. baumannii (FIG. 2, first row))","breakpoint concentration for cell enlargement, intermediate (Acinetobacter baumannii [2]; empirically correlated to CLSI MIC breakpoint 16 μg/ml)","breakpoint concentration for cell enlargement, susceptible (Acinetobacter baumannii [2]; empirically correlated to CLSI MIC breakpoint ≤8 μg/ml)","breakpoint concentration for cell enlargement, resistant (Acinetobacter baumannii [2]; empirically correlated to CLSI MIC breakpoint ≥32 μg/ml)","cell enlargement (Acinetobacter baumannii [2]; highly resistant strain, 1 h incubation, tested 2, 4, 8 μg/ml)","concentration from which cell enlargement is demonstrated (Acinetobacter baumannii [2]; intermediate strain, 1 h incubation, tested 2, 4, 8 μg/ml)","concentration from which cell enlargement is demonstrated (Acinetobacter baumannii [2]; resistant strain, 1 h incubation, tested 2, 4, 8 μg/ml)","concentration from which cell enlargement is demonstrated (Acinetobacter baumannii [2]; susceptible strain, 1 h incubation, tested 2, 4, 8 μg/ml)","breakpoint concentration for cell enlargement, susceptible strains (Klebsiella pneumoniae)","cell enlargement, resistant strains (Pseudomonas aeruginosa; 1 h incubation with 0.5 μg/ml and 1 μg/ml, 5 strains)","cell enlargement, intermediate strains (Pseudomonas aeruginosa; 1 h incubation with 0.5 μg/ml and 1 μg/ml, 8 strains)","cell enlargement, susceptible strains (Pseudomonas aeruginosa; 1 h incubation with 0.5 μg/ml and 1 μg/ml, 117 strains)","breakpoint concentration for cell enlargement, susceptible strains (Pseudomonas aeruginosa; ceftazidime, correlated to CLSI MIC≤8 μg/ml)","breakpoint concentration for cell enlargement, resistant strains (Pseudomonas aeruginosa; ceftazidime, correlated to CLSI MIC≥32 μg/ml)"
C[C@@H](O)[C@H]1C(=O)N2C(C(=O)O)=C(S[C@@H]3CN[C@H](C(=O)N(C)C)C3)[C@H](C)[C@H]12 [meropenem],only after 0.5 μg/ml,never appeared enlarged,appeared enlarged,–,–,–,–,–,–,–,–,–,–,–,–,–,–,–,–
CC(C)(O/N=C(\C(=O)N[C@@H]1C(=O)N2C(C(=O)[O-])=C(C[n+]3ccccc3)CS[C@H]12)c1csc(N)n1)C(=O)O [ceftazidime],–,–,–,> 256 µg/mL,12 µg/mL,2.5 µg/mL,4 µg/mL,≤ 2 µg/mL,≥ 8 µg/mL,did not demonstrate enlargement at any tested concentration,8 µg/mL,8 µg/mL,2 µg/mL,0.5 µg/mL,never appeared enlarged,only after 1 μg/ml,appeared enlarged,0.5 µg/mL,greater than 1.0 μg/ml
